# Data taken from PubChem BioAssay (NCI).
#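 All cell lines were grown in 96-well plates and treated with compound for 48 hours. Definition used: TGI = concentration required for complete inhibition of growth.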
# Key:
# Assay in all cases: growth of human tumour cells (NCI), 48 h
# [1] = system: 786-0 renal
# [2] = system: A498 renal
# [3] = system: A549 NSCLC
# [4] = system: ACHN renal
# [5] = system: BT-549 breast
# [6] = system: CAKI-1 renal
# [7] = system: CCRF-CEM leukemia
# [8] = system: COLO 205 colon
# [9] = system: DU-145 prostate
# [10] = system: EKVX NSCLC
# [11] = system: HCC-2998 colon
# [12] = system: HCT-116 colon
# [13] = system: HCT-15 colon
# [14] = system: HL-60(TB) leukemia
# [15] = system: HOP-62 NSCLC
# [16] = system: HOP-92 NSCLC
# [17] = system: HS 578T breast
# [18] = system: HT29 colon
# [19] = system: IGROV1 ovarian
# [20] = system: K-562 leukemia
# [21] = system: KM12 colon
# [22] = system: LOX IMVI melanoma
# [23] = system: M14 melanoma
# [24] = system: MALME-3M melanoma
# [25] = system: MCF7 breast
# [26] = system: MDA-MB-231 breast
# [27] = system: MDA-MB-435
# [28] = system: MDA-N
# [29] = system: MOLT-4 leukemia
# [30] = system: NCI-H226 lung
# [31] = system: NCI-H23 lung
# [32] = system: NCI-H460 lung
# [33] = system: NCI-H522 lung
# [34] = system: NCI/ADR-RES ovarian
# [35] = system: OVCAR-3 ovarian
# [36] = system: OVCAR-4 ovarian
# [37] = system: OVCAR-5 ovarian
# [38] = system: OVCAR-8 ovarian
# [39] = system: PC-3 prostate
# [40] = system: RPMI-8226 leukemia
# [41] = system: RXF 393 renal
# [42] = system: SF-268 CNS
# [43] = system: SF-295 CNS
# [44] = system: SF-539 CNS
# [45] = system: SK-MEL-2 melanoma
# [46] = system: SK-MEL-28 melanoma
# [47] = system: SK-MEL-5 melanoma
# [48] = system: SK-OV-3 ovarian
# [49] = system: SN12C renal
# [50] = system: SNB-19 CNS
# [51] = system: SNB-75 CNS
# [52] = system: SR leukemia
# [53] = system: SW-620 colon
# [54] = system: T-47D breast
# [55] = system: TK-10 renal
# [56] = system: U251 CNS
# [57] = system: UACC-257 melanoma
# [58] = system: UACC-62 melanoma
# [59] = system: UO-31 renal
compound,measurement,setting,value
CCC(=O)c1cc(C(=O)C(=S)SC)cc(C(=O)C(=S)SC)c1,TGI,[1],> 100 µM
same,TGI,[2],> 100 µM
same,TGI,[3],> 100 µM
same,TGI,[4],> 100 µM
same,TGI,[5],> 100 µM
same,TGI,[6],> 100 µM
same,TGI,[7],> 24.6 µM
same,TGI,[8],> 100 µM
same,TGI,[9],> 100 µM
same,TGI,[10],> 100 µM
same,TGI,[11],> 100 µM
same,TGI,[12],> 100 µM
same,TGI,[13],> 100 µM
same,TGI,[14],> 72.6 µM
same,TGI,[15],> 100 µM
same,TGI,[16],> 100 µM
same,TGI,[17],> 100 µM
same,TGI,[18],> 100 µM
same,TGI,[19],> 100 µM
same,TGI,[20],> 100 µM
same,TGI,[21],> 100 µM
same,TGI,[22],> 100 µM
same,TGI,[23],> 100 µM
same,TGI,[24],> 100 µM
same,TGI,[25],> 100 µM
same,TGI,[26],> 100 µM
same,TGI,[27],> 100 µM
same,TGI,[28],> 100 µM
same,TGI,[29],> 63.4 µM
same,TGI,[30],> 100 µM
same,TGI,[31],> 100 µM
same,TGI,[32],> 100 µM
same,TGI,[33],> 100 µM
same,TGI,[34],> 100 µM
same,TGI,[35],> 100 µM
same,TGI,[36],> 100 µM
same,TGI,[37],> 100 µM
same,TGI,[38],> 100 µM
same,TGI,[39],> 100 µM
same,TGI,[40],> 100 µM
same,TGI,[41],> 100 µM
same,TGI,[42],> 100 µM
same,TGI,[43],> 100 µM
same,TGI,[44],> 100 µM
same,TGI,[45],> 100 µM
same,TGI,[46],> 100 µM
same,TGI,[47],> 100 µM
same,TGI,[48],> 100 µM
same,TGI,[49],> 100 µM
same,TGI,[50],> 100 µM
same,TGI,[51],> 100 µM
same,TGI,[52],> 100 µM
same,TGI,[53],> 100 µM
same,TGI,[54],> 100 µM
same,TGI,[55],> 100 µM
same,TGI,[56],> 100 µM
same,TGI,[57],> 100 µM
same,TGI,[58],> 100 µM
same,TGI,[59],> 100 µM
